Experimental data: patent publication US11091478B2 (Fochon Pharmaceuticals, Ltd., priority 2017, dated 2021)

Key:
[1] = tested on: DOHH2 cells; test: Cell proliferation assay (MTS), DOHH2 cells, 120 h; format: cell-based; conditions: Homo sapiens, DOHH-2, 120 h
Outline: (§1)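 Cells in RPMI-1640 with 10% FBS were seeded at 5000/well, left overnight at 37° C., 5% CO2, then exposed to compound at 10000 down to 1.5 nM (nine concentrations) for 72 h (RS4;11) or 120 h (DOHH2). Viability was read by MTS, 2 h, absorbance at 490/650 nm; IC50 calculated.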

[2] = tested on: RS4;11 cells; test: Cell proliferation assay (MTS), RS4;11 cells, 72 h; format: cell-based; conditions: Homo sapiens, RS4-11, 72 h
Outline: as §1

Work on CC1(C)CCC(CN2CCN(c3ccc(C(=O)NS(=O)(=O)c4cc5c(c([N+](=O)[O-])c4)N[C@H](CNS(=O)(=O)C4CC4)CO5)c(Oc4cnc5[nH]ccc5c4)c3)CC2)=C(c2ccc(Cl)cc2)C1 [Example 2-138, (R)-2-((1H-pyrrolo[2,3-b]pyridin-5-yl)oxy)-4-(4-((4′-chloro-5,5-dimethyl-3,4,5,6-tetra-hydro-[1,1′-biphenyl]-2-yl)methyl)piperazin-1-yl)-N-((3-(cyclopropanesulfonamidometh-yl)-5-nitro-3,4-dihydro-2H-benzo[b][1,4]oxazin-7-yl)sulfonyl)benzamide] yielded an IC50 [1] of 166 nM and an IC50 [2] of 72 nM.

With CC1(C)CCC(CN2CCN(c3ccc(C(=O)NS(=O)(=O)c4cc5c(c([N+](=O)[O-])c4)N[C@H](CNS(=O)(=O)C4CCOCC4)CO5)c(Oc4cnc5[nH]ccc5c4)c3)CC2)=C(c2ccc(Cl)cc2)C1 [Example 2-139, (R)-2-((1H-pyrolo[2,3-b]pyridin-5-yl)oxy)-4-(4-((4′-chloro-5,5-dimethyl-3,4,5,6-tetra-hydro-[1,1′-biphenyl]-2-yl)methyl)piperazin-1-yl)-N-((5-nitro-3-(((tetrahydro-2H-pyran)-4-sulfonamido)methyl)-3,4-dihdyro-2H-benzo[b][1,4]oxazin-7-yl)sulfonyl)benzamide] the IC50 [1] was 338 nM and the IC50 [2] was 88 nM.

CC1(C)CCC(CN2CCN(c3ccc(C(=O)NS(=O)(=O)c4cc5c(c([N+](=O)[O-])c4)N[C@@H](CC(=O)N4CCOCC4)CO5)c(Oc4cnc5[nH]ccc5c4)c3)CC2)=C(c2ccc(Cl)cc2)C1 [Example 2-142, (S)-2-((1H-pyrrolo[2,3-b]pyridin-5-yl)oxy)-4-(4-((4′-chloro-5,5-dimethyl-3,4,5,6-tetra-hydro-[1,1′-biphenyl]-2-yl)methyl)piperazin-1-yl)-N-((3-(2-morpholino-2-oxoethyl)-5-nitro-3,4-dihydro-2H-benzo[b][1,4]oxazin-7-yl)sulfonyl)benzamide] gave an IC50 [1] of 28 nM and an IC50 [2] of 3 nM.

Work on CC1(C)CCC(CN2CCN(c3ccc(C(=O)NS(=O)(=O)c4cc5c(c([N+](=O)[O-])c4)N[C@H](CC(=O)N4CCOCC4)CO5)c(Oc4cnc5[nH]ccc5c4)c3)CC2)=C(c2ccc(Cl)cc2)C1 [Example 2-143, (R)-2-((1H-pyrrolo[2,3-b]pyridin-5-yl)oxy)-4-(4-((4′-chloro-5,5-dimethyl-3,4,5,6-tetra-hydro-[1,1′-biphenyl]-2-yl)methyl)piperazin-1-yl)-N-((3-(2-morpholino-2-oxoethyl)-5-nitro-3,4-dihydro-2H-benzo[b][1,4]oxazin-7-yl)sulfonyl)benzamide] yielded an IC50 [1] of 35 nM and an IC50 [2] of 35 nM.

CC1(C)CCC(CN2CCN(c3ccc(C(=O)NS(=O)(=O)c4cc5c(c([N+](=O)[O-])c4)N[C@H](CC#N)CO5)c(Oc4cnc5[nH]ccc5c4)c3)CC2)=C(c2ccc(Cl)cc2)C1 [Example 2-144, (R)-2-((1H-pyrrolo[2,3-b]pyridin-5-yl)oxy)-4-(4-((4′-chloro-5,5-dimethyl-3,4,5,6-tetra-hydro-[1,1′-biphenyl]-2-yl)methyl)piperazin-1-yl)-N-((3-(cyanomethyl)-5-nitro-3,4-di-hydro-2H-benzo[b][1,4]oxazin-7-yl)sulfo-nyl)benzamide] showed an IC50 [1] of 14 nM and an IC50 [2] of 3 nM.

Molecule CC1(C)CCC(CN2CCN(c3ccc(C(=O)NS(=O)(=O)c4cc5c(c([N+](=O)[O-])c4)N[C@H](CS(C)(=O)=O)CO5)c(Oc4cnc5[nH]ccc5c4)c3)CC2)=C(c2ccc(Cl)cc2)C1 [Example 2-145, (S)-2-((1H-pyrrolo[2,3-b]pyridin-5-yl)oxy)-4-(4-((4′-chloro-5,5-dimethyl-3,4,5,6-tetra-hydro-[1,1′-biphenyl]-2-yl)methyl)piperazin-1-yl)-N-((3-((methylsulfonyl)methyl)-5-nitro-3,4-dihydro-2H-benzo[b][1,4]oxazin-7-yl)sulfonyl)benzamide] has an IC50 [1] of 87 nM and an IC50 [2] of 1 nM.

With CC1(C)CCC(CN2CCN(c3ccc(C(=O)NS(=O)(=O)c4cc5c(c([N+](=O)[O-])c4)N[C@@H](CS(C)(=O)=O)CO5)c(Oc4cnc5[nH]ccc5c4)c3)CC2)=C(c2ccc(Cl)cc2)C1 [Example 2-147, (R)-2-((1H-pyrrolo[2,3-b]pyridin-5-yl)oxy)-4-(4-((4′-chloro-5,5-dimethyl-3,4,5,6-tetra-hydro-[1,1′-biphenyl]-2-yl)methyl)piperazin-1-yl)-N-((3-((methylsulfonyl)methyl)-5-nitro-3,4-dihdyro-2H-benzo[b][1,4]oxazin-7-yl)sulfonyl)benzamide] the IC50 [1] was 135 nM and the IC50 [2] was 16 nM.

In the case of CC1(C)CCC(CN2CCN(c3ccc(C(=O)NS(=O)(=O)c4cc5c(c([N+](=O)[O-])c4)N[C@H](CN4CCS(=O)(=O)CC4)CO5)c(Oc4cnc5[nH]ccc5c4)c3)CC2)=C(c2ccc(Cl)cc2)C1 [Example 2-149, (R)-2-((1H-pyrrolo[2,3-b]pyridin-5-yl)oxy)-4-(4-((4′-chloro-5,5-dimethyl-3,4,5,6-tetra-hydro-[1,1′-biphenyl]-2-yl)methyl)piperazin-1-yl)-N-((3-((1,1-dioxidothiomorpholino)methyl)-5-nitro-3,4-dihydro-2H-benzo[b] [1,4]oxazin-7-yl)sulfonyl)benzamide], the IC50 [1] is reported as 247 nM and the IC50 [2] is reported as 50 nM.

For CC1(C)CCC(CN2CCN(c3ccc(C(=O)NS(=O)(=O)c4cc5c(c([N+](=O)[O-])c4)N[C@H](CN4CCC(N=S(C)(C)=O)CC4)CO5)c(Oc4cnc5[nH]ccc5c4)c3)CC2)=C(c2ccc(Cl)cc2)C1 [Example 2-150], the IC50 [1] was 67 nM and the IC50 [2] was 45 nM.

CC1(C)CCC(CN2CCN(c3ccc(C(=O)NS(=O)(=O)c4cc5c(c([N+](=O)[O-])c4)N[C@H](CN4CCC(NS(C)(=O)=O)CC4)CO5)c(Oc4cnc5[nH]ccc5c4)c3)CC2)=C(c2ccc(Cl)cc2)C1 [Example 2-151, (R)-2-((1H-pyrrolo[2,3-b]pyridin-5-yl)oxy)-4-(4-((4′-chloro-5,5-dimethyl-3,4,5,6-tetra-hydro-[1,1′-biphenyl]-2-yl)methyl)piperazin-1-yl)-N-((3-((4-(methylsulfonamido)pi-peridin-1-yl)methyl)-5-nitro-3,4-dihydro-2H-benzo[b][1,4]oxazin-7-yl)sulfonyl)benzamide] showed an IC50 [1] of 2 nM and an IC50 [2] of 1 nM.

COC(=O)NC1CCN(C[C@@H]2COc3cc(S(=O)(=O)NC(=O)c4ccc(N5CCN(CC6=C(c7ccc(Cl)cc7)CC(C)(C)CC6)CC5)cc4Oc4cnc5[nH]ccc5c4)cc([N+](=O)[O-])c3N2)CC1 [Example 2-152, methyl (R)-(1-((7-(N-(2-((1H-pyrrolo[2,3-b]pyridin-5-yl)oxy)-4-(4-((4′-chloro-5,5-dimethyl-3,4,5,6-tetrahydro-[1,1′-biphenyl]-2-yl)meth-yl)piperazin-1-yl)benzoyl)sulfamoyl)-5-nitro-3,4-dihydro-2H-benzo[b][1,4]oxazin-3-yl)methyl)piperidin-4-yl)carbamate] showed an IC50 [1] of 1 nM and an IC50 [2] of 1 nM.

Work on CC1(C)CCC(CN2CCN(c3ccc(C(=O)NS(=O)(=O)c4cc5c(c([N+](=O)[O-])c4)N[C@@H](CCN4CCS(=O)(=O)CC4)CO5)c(Oc4cnc5[nH]ccc5c4)c3)CC2)=C(c2ccc(Cl)cc2)C1 [Example 2-153, (S)-2-((1H-pyrrolo[2,3-b]pyridin-5-yl)oxy)-4-(4-((4′-chloro-5,5-dimethyl-3,4,5,6-tetra-hydro-[1,1′-biphenyl]-2-yl)methyl)piperazin-1-yl)-N-((3-(2-(1,1-dioxidothiomorpholino)ethyl)-5-nitro-3,4-dihydro-2H-benzo[b] [1,4]oxazin-7-yl)sulfonyl)benzamide] yielded an IC50 [1] of 8 nM and an IC50 [2] of 1 nM.

In the case of CC1(C)CCC(CN2CCN(c3ccc(C(=O)NS(=O)(=O)c4cc5c(c([N+](=O)[O-])c4)N[C@H](CN4CCP(C)(=O)CC4)CO5)c(Oc4cnc5[nH]ccc5c4)c3)CC2)=C(c2ccc(Cl)cc2)C1 [Example 2-154, (R)-2-((1H-pyrrolo[2,3-b]pyridin-5-yl)oxy)-4-(4-((4′-chloro-5,5-dimethyl-3,4,5,6-tetra-hydro-[1,1′-biphenyl]-2-yl)methyl)piperazin-1-yl)-N-((3-((4-methyl-4-oxido-1,4-aza-phosphinan-1-yl)methyl)-5-nitro-3,4-dihydro-2H-benzo[b][1,4]oxazin-7-yl)sulfonyl) benzamide], the IC50 [1] is reported as 201 nM and the IC50 [2] is reported as 24 nM.

For CC1(C)CCC(CN2CCN(c3ccc(C(=O)NS(=O)(=O)c4cc5c(c([N+](=O)[O-])c4)N[C@H](CCN4CCP(C)(=O)CC4)CO5)c(Oc4cnc5[nH]ccc5c4)c3)CC2)=C(c2ccc(Cl)cc2)C1 [Example 2-155, (R)-2-((1H-pyrrolo[2,3-b]pyridin-5-yl)oxy)-4-(4-((4′-chloro-5,5-dimethyl-3,4,5,6-tetra-hydro-[1,1′-biphenyl]-2-yl)methyl)piperazin-1-yl)-N-((3-(2-(4-methyl-4-oxido-1,4-aza-phosphinan-1-yl)ethyl)-5-nitro-3,4-dihydro-2H-benzo[b][1,4]oxazin-7-yl)sulfonyl) benzamide], the IC50 [1] was 459 nM and the IC50 [2] was 66 nM.

With CC1(C)CCC(CN2CCN(c3ccc(C(=O)NS(=O)(=O)c4cc5c(c([N+](=O)[O-])c4)N[C@H](Cc4ccccc4)CO5)c(Oc4cnc5[nH]ccc5c4)c3)CC2)=C(c2ccc(Cl)cc2)C1 [Example 2-156, (R)-2-((1H-pyrrolo[2,3-b]pyridin-5-yl)oxy)-N-((3-benzyl-5-nitro-3,4-dihdyro-2H-benzo[b][1,4]oxazin-7-yl)sulfonyl)-4-(4-((4′-chloro-5,5-dimethyl-3,4,5,6-tetrahydro-[1,1′-biphenyl]-2-yl)methyl)piperazin-1-yl)benza-mide] the IC50 [1] was 6 nM and the IC50 [2] was 19 nM.

Molecule CC1(C)CCC(CN2CCN(c3ccc(C(=O)NS(=O)(=O)c4cc5c(c([N+](=O)[O-])c4)N[C@H](Cc4ccccc4F)CO5)c(Oc4cnc5[nH]ccc5c4)c3)CC2)=C(c2ccc(Cl)cc2)C1 [Example 2-157, (R)-2-((1H-pyrrolo[2,3-b]pyridin-5-yl)oxy)-4-(4-((4′-chloro-5,5-dimethyl-3,4,5,6-tetra-hydro-[1,1′-biphenyl]-2-yl)methyl)piperazin-1-yl)-N-((3-(2-fluorobenzyl)-5-nitro-3,4-dihydro-2H-benzo[b][1,4]oxazin-7-yl)sulfo-nyl)benzamide] has an IC50 [1] of 39 nM and an IC50 [2] of 10 nM.
